The record followed here is patent US12502362B2, “Inhibitors of nucleotidyltransferase superfamily enzymes as antibiotics” (priority 2017, dated 2025).

The subject of experiment [1] is Coagulase negative Staphylococcus. Description: Antibiotic susceptibility of coagulase negative Staphylococcus strains. It is filed as cell-based.
Experiment [2] relates to S. aureus ATCC strains and MRSA. In kind it is cell-based, Staphylococcus aureus.
The subject of the next experiment is Staphylococcus hominis. It is filed as cell-based. The procedure: (§1) It was also tested whether compounds #63 and #285 can inhibit other coagulase-negative Staphylococcus (CNS) including S. epidermidis, S. hominis, etc. […].
In experiment [3] the test system is Staphylococcus epidermidis. In kind it is cell-based. As for the experimental part:
as §1

For another experiment, the system named is E. coli (ATCC 35218). Description: microbe, parasite or virus in culture. It is filed as cell-based. Particulars: E. coli ATCC 35218. The procedure: (§2) To further characterize the compounds, the minimal inhibitory concentration (MIC80) were determined for selected compounds. MIC80 is defined as the compound concentration at which ≥80% bacterial growth is inhibited compare to untreated controls. Meanwhile, for the selected compounds, cytotoxicity assays (CC50) were performed on a HepG2-derived hepatoblastoma cell line (HEPDES19). […] For CC50 evaluation, soluble tetrazolium dye (MTS) was used to measure mitochondrial toxicity in a human hepatoblastoma cell line (18). The bacteria (E. coli, S. saprophyticus and A. baumannii) used in MIC80 measurements were the same as that in the primary screening, but for Staphylococcus, S. aureus is used primarily because it is a common pathogen in Staphylococcaeae family, while S. saprophyticus is part of the normal human flora.

The subject of a further experiment is S. aureus (ATCC 29213). Description: MIC80 on S. aureus. In kind it is cell-based, Staphylococcus aureus. Conditions: S. aureus ATCC 29213 (MSSA); ≥80% growth inhibition. The procedure:
as §2

Setting [4] is: CNS1 (Coagulase negative Staphylococcus).
The mark [5] stands for this setting: CNS2 (Coagulase negative Staphylococcus).
Setting [6] is: Se1 (Staphylococcus epidermidis).
Where [7] appears, read: Se2 (Staphylococcus epidermidis).
Where [8] appears, read: Se3 (Staphylococcus epidermidis).
Where [9] appears, read: Se4 (Staphylococcus epidermidis).
Setting [10] is: Se5 (Staphylococcus epidermidis).

The structures appear in SMILES notation. ≈ marks a conversion by molar mass, not a printed value. Like-named read-outs stand apart in the source and are kept apart here. Where only a bound is given, the exact number is not on record here.

For `Cc1onc(-c2ccccc2)c1C(=O)N[C@@H]1C(=O)N2[C@@H]1SC(C)(C)[C@@H]2C(=O)O` [OXA, Oxacillin], the Antibiotic susceptibility result is listed as “R” in experiment [1] (setting [4]); “R” in experiment [1] (setting [5]); “S” in experiment [2] (S. aureus ATCC 25923); “S” in experiment [2] (S. aureus ATCC 29213); “R” in experiment [2] (S. aureus ATCC BAA 976); “S” in experiment [2] (S. aureus ATCC BAA 977). The Antibiotic susceptibility result in experiment [2] (S. aureus ATCC BAA 1026), in experiment [2] (Sa1 (MRSA)), in experiment [2] (Sa2 (MRSA)), in experiment [2] (Sa3 (MRSA)), in experiment [2] (Sa5 (MRSA)) and in experiment [2] (Sa6 (MRSA)) was “R” each time. Moreover, the Antibiotic susceptibility result in experiment [2] (Sa7 (MRSA)), in experiment [2] (Sa8 (MRSA)), in experiment [2] (Sa9 (MRSA)), in experiment [2] (Sa10 (MRSA)), in experiment [2] (Sa11 (MRSA)) and in experiment [2] (Sa12 (MRSA)) was “R” each time. Besides, the Antibiotic susceptibility result in experiment [2] (Sa14 (MRSA)), in experiment [2] (Sa15 (MRSA)), in experiment [2] (Sa16 (MRSA)), in experiment [2] (Sa17 (MRSA)), in experiment [2] (Sa18 (MRSA)) and in experiment [2] (Sa19 (MRSA)) was “R” each time. Besides, the Antibiotic susceptibility result (in experiment [2] (Sa20 (MRSA)); in experiment [2] (Sa21 (MRSA)); in experiment [2] (Sa22 (MRSA)); in experiment [2] (Sa23 (MRSA)); in the experiment on Staphylococcus hominis (Sh1 (Staphylococcus hominis)); with Staphylococcus hominis (Sh2 (Staphylococcus hominis))) was “R” each time. The Antibiotic susceptibility result (in the experiment with Staphylococcus hominis (Sh3 (Staphylococcus hominis)); in experiment [3] (setting [6]); in experiment [3] (setting [7]); in experiment [3] (setting [8]); in experiment [3] (setting [9]); in experiment [3] (setting [10])) was “R” in each case.

As for `CC(=O)NC[C@H]1CN(c2ccc(N3CCOCC3)c(F)c2)C(=O)O1` [LZD, linezolid], the Antibiotic susceptibility entry in experiment [1] (setting [4]), in experiment [1] (setting [5]), in experiment [2] (S. aureus ATCC 25923), in experiment [2] (S. aureus ATCC 29213), in experiment [2] (S. aureus ATCC BAA 976) and in experiment [2] (S. aureus ATCC BAA 977) was “S” each time. Also, the Antibiotic susceptibility result in experiment [2] (S. aureus ATCC BAA 1026), in experiment [2] (Sa1 (MRSA)), in experiment [2] (Sa2 (MRSA)), in experiment [2] (Sa3 (MRSA)), in experiment [2] (Sa5 (MRSA)) and in experiment [2] (Sa6 (MRSA)) was “S” in each case. Moreover, the Antibiotic susceptibility entry in experiment [2] (Sa7 (MRSA)), in experiment [2] (Sa8 (MRSA)), in experiment [2] (Sa9 (MRSA)), in experiment [2] (Sa10 (MRSA)), in experiment [2] (Sa11 (MRSA)) and in experiment [2] (Sa12 (MRSA)) was “S” throughout. Moreover, the Antibiotic susceptibility entry in experiment [2] (Sa14 (MRSA)), in experiment [2] (Sa15 (MRSA)), in experiment [2] (Sa16 (MRSA)), in experiment [2] (Sa17 (MRSA)), in experiment [2] (Sa18 (MRSA)) and in experiment [2] (Sa19 (MRSA)) was “S” in each case. The Antibiotic susceptibility entry (in experiment [2] (Sa20 (MRSA)); in experiment [2] (Sa21 (MRSA)); in experiment [2] (Sa22 (MRSA)); in experiment [2] (Sa23 (MRSA)); with Staphylococcus hominis (Sh1 (Staphylococcus hominis)); in the experiment on Staphylococcus hominis (Sh2 (Staphylococcus hominis))) was “S” throughout. Besides, the Antibiotic susceptibility result (in the experiment with Staphylococcus hominis (Sh3 (Staphylococcus hominis)); in experiment [3] (setting [6]); in experiment [3] (setting [7]); in experiment [3] (setting [8]); in experiment [3] (setting [9]); in experiment [3] (setting [10])) was “S” in each case.

For `CC[C@H]1OC(=O)[C@H](C)[C@@H](O[C@H]2C[C@@](C)(OC)[C@@H](O)[C@H](C)O2)[C@H](C)[C@@H](O[C@@H]2O[C@H](C)C[C@H](N(C)C)[C@H]2O)[C@](C)(O)C[C@@H](C)C(=O)[C@H](C)[C@@H](O)[C@]1(C)O` [ERY, erythromycin], the Antibiotic susceptibility result in experiment [1] (setting [4]) is given as “I”; in experiment [1] (setting [5]) it was “S”; in experiment [2] (S. aureus ATCC 25923), “S”; in experiment [2] (S. aureus ATCC 29213), “S”; in experiment [2] (S. aureus ATCC BAA 976), “R”; in experiment [2] (S. aureus ATCC BAA 977) it was “R”. Moreover, the Antibiotic susceptibility result in experiment [2] (S. aureus ATCC BAA 1026), in experiment [2] (Sa1 (MRSA)), in experiment [2] (Sa2 (MRSA)), in experiment [2] (Sa3 (MRSA)), in experiment [2] (Sa5 (MRSA)) and in experiment [2] (Sa6 (MRSA)) was “R” throughout. For the same compound, the Antibiotic susceptibility entry in experiment [2] (Sa7 (MRSA)), in experiment [2] (Sa8 (MRSA)), in experiment [2] (Sa9 (MRSA)), in experiment [2] (Sa10 (MRSA)), in experiment [2] (Sa11 (MRSA)) and in experiment [2] (Sa12 (MRSA)) was “R” throughout. Besides, the Antibiotic susceptibility result in experiment [2] (Sa14 (MRSA)), in experiment [2] (Sa15 (MRSA)), in experiment [2] (Sa16 (MRSA)), in experiment [2] (Sa17 (MRSA)), in experiment [2] (Sa18 (MRSA)) and in experiment [2] (Sa19 (MRSA)) was “R” throughout. In addition, the Antibiotic susceptibility entry in experiment [2] (Sa20 (MRSA)) is “R”; in experiment [2] (Sa21 (MRSA)), “R”; in experiment [2] (Sa22 (MRSA)) it was “R”; in experiment [2] (Sa23 (MRSA)), “R”; in the experiment with Staphylococcus hominis (Sh1 (Staphylococcus hominis)) it was “R”; in the experiment on Staphylococcus hominis (Sh2 (Staphylococcus hominis)), “S”. In addition, the Antibiotic susceptibility result in the experiment on Staphylococcus hominis (Sh3 (Staphylococcus hominis)) is on record as “R”; in experiment [3] (setting [6]), “S”; in experiment [3] (setting [7]), “R”; in experiment [3] (setting [8]) it was “R”; in experiment [3] (setting [9]) it was “R”; in experiment [3] (setting [10]) it was “R”.

Regarding `COc1ccc(Cl)cc1C(=O)Sc1cccccc1=O` [Compound 681], the “MIC80 E. coli” value with E. coli (ATCC 35218) amounted to 19.8 µM (≈ 6.07 µg/mL). Further, the “MIC80 S. aureus” value with S. aureus (ATCC 29213) amounted to 19.8 µM (≈ 6.07 µg/mL).

For the compound `O=c1cccccc1SSc1cccccc1=O` [Compound 685], in the experiment with E. coli (ATCC 35218), the “MIC80 E. coli” value is 19.8 µM (≈ 5.43 µg/mL). In addition, the “MIC80 S. aureus” value with S. aureus (ATCC 29213) is greater than 100 µM.

In the case of `O=C(O)c1ccccc(=O)c1O` [Compound 338], the “MIC80 S. aureus” value with S. aureus (ATCC 29213) came to 19.8 µM (≈ 3.29 µg/mL).

`CCC[C@@H]1C[C@@H](C(=O)N[C@@H]([C@H]2O[C@H](SC)[C@H](O)[C@@H](O)[C@H]2O)[C@H](C)Cl)N(C)C1` [CLI, clindamycin]: the Antibiotic susceptibility entry was “S” in experiment [2] (S. aureus ATCC 25923); “S” in experiment [2] (S. aureus ATCC 29213); “S” in experiment [2] (S. aureus ATCC BAA 976); “R” in experiment [2] (S. aureus ATCC BAA 977); “R” in experiment [2] (S. aureus ATCC BAA 1026); “R” in experiment [2] (Sa1 (MRSA)). In addition, the Antibiotic susceptibility result in experiment [2] (Sa2 (MRSA)) is “S”; in experiment [2] (Sa3 (MRSA)), “R”; in experiment [2] (Sa5 (MRSA)) it was “R”; in experiment [2] (Sa6 (MRSA)), “R”; in experiment [2] (Sa7 (MRSA)) it was “S”; in experiment [2] (Sa8 (MRSA)), “S”. Moreover, the Antibiotic susceptibility result in experiment [2] (Sa9 (MRSA)), in experiment [2] (Sa10 (MRSA)), in experiment [2] (Sa11 (MRSA)), in experiment [2] (Sa12 (MRSA)), in experiment [2] (Sa14 (MRSA)) and in experiment [2] (Sa15 (MRSA)) was “R” throughout. Besides, the Antibiotic susceptibility entry is “R” in experiment [2] (Sa16 (MRSA)); “S” in experiment [2] (Sa17 (MRSA)); “S” in experiment [2] (Sa18 (MRSA)); “R” in experiment [2] (Sa19 (MRSA)); “S” in experiment [2] (Sa20 (MRSA)); “S” in experiment [2] (Sa21 (MRSA)). Further, the Antibiotic susceptibility result is recorded as “S” in experiment [2] (Sa22 (MRSA)); “S” in experiment [2] (Sa23 (MRSA)); “S” in the experiment on Staphylococcus hominis (Sh1 (Staphylococcus hominis)); “S” in the experiment with Staphylococcus hominis (Sh2 (Staphylococcus hominis)); “R” in the experiment on Staphylococcus hominis (Sh3 (Staphylococcus hominis)); “R” in experiment [3] (setting [6]). Moreover, the Antibiotic susceptibility result in experiment [3] (setting [7]), in experiment [3] (setting [8]), in experiment [3] (setting [9]) and in experiment [3] (setting [10]) was “R” in each case.

In the case of `Cc1cc(O)c(=O)c(O)cc1-c1cccc2ccccc12` [Compound 146], the “MIC80 S. aureus” value in the experiment with S. aureus (ATCC 29213) amounted to 19.8 µM (≈ 5.51 µg/mL).

Consider `O=c1cccccc1Sc1cccccc1=O` [Compound 684], for which the “MIC80 S. aureus” value with S. aureus (ATCC 29213) is 44.4 µM (≈ 10.8 µg/mL).
